In the case of `CCN1C(=O)C(C(=O)Nc2cccc(C(=O)NC3CCCCC3)c2)c2cc(C(C)=O)ccc21` (stereo not drawn) [Preparation 2, 5-Acetyl-1-ethyl-2-oxo-2,3-dihydro-1H-indole-3-carboxylic acid (3-cyclohexylcarbamoyl-phenyl)-amide], the melting point is reported as 180 °C (dec.).

`CCN1C(=O)C(C(=O)Nc2cccc(C(=O)Nc3ccc(Cl)cc3)c2)c2cc(C(C)=O)ccc21` (stereo not drawn) [Preparation 3, 5-Acetyl-1-ethyl-2-oxo-2,3-dihydro-1H-indole-3-carboxylic acid [3-(4-chloro-phenylcarbamoyl)-phenyl]-amide] and `CCN1C(=O)C(C(=O)Nc2cccc(C(=O)Nc3ccc(Br)cc3)c2)c2cc(C(C)=O)ccc21` (stereo not drawn) [Preparation 8, 5-Acetyl-1-ethyl-2-oxo-2,3-dihydro-1H-indole-3-carboxylic acid [3-(4-bromo-phenylcarbamoyl)-phenyl]-amide] cannot be ordered by melting point: 119 to 121 °C for the first, 117 to 120 °C for the second.

First: CCN1C(=O)C(C(=O)Nc2cccc(C(=O)Nc3ccc(I)cc3)c2)c2cc(C(C)=O)ccc21 (stereo not drawn) [Preparation 9, 5-Acetyl-1-ethyl-2-oxo-2,3-dihydro-1H-indole-3-carboxylic acid [3-(4-iodo-phenylcarbamoyl)-phenyl]-amide]
Second: CC(=O)c1ccc2c(c1)C(C(=O)Nc1cccc(C(=O)Nc3ccccc3)c1)C(=O)N2C (stereo not drawn) [Preparation 12, 5-Acetyl-1-methyl-2-oxo-2,3-dihydro-1H-indole-3-carboxylic acid (3-phenylcarbamoyl-phenyl)-amide]
The melting point of the first is higher: 205 to 210 °C for the first, 178 to 179 °C for the second.

Work on `CCN1C(=O)C(C(=O)Nc2cccc(C(=O)Nc3ccccc3)c2)c2cc(C(=O)c3ccccc3)ccc21` (stereo not drawn) [Preparation 10, 5-Benzoyl-1-ethyl-2-oxo-2,3-dihydro-1H-indole-3-carboxylic acid (3-phenylcarbamoyl-phenyl)-amide] yielded a melting point of 129 to 135 °C.

Reference: patent publication US20020031816A1, “METHOD OF INHIBITION OF HUMAN GLYCOGEN PHOSPHORYLASE” (priority 1998, published 2002)
